Data from the supplement of paper PMC10307832.

Assays:
Experiment in all cases: relative viability (nuclei count vs DMSO), 5 days (fraction); higher = more cells survive
[1] = compound: CO[C@H]1C[C@@H]2CC[C@@H](C)[C@@](O)(O2)C(=O)C(=O)N2CCCC[C@H]2C(=O)O[C@H]([C@H](C)C[C@@H]2CC[C@@H](OCCO)[C@H](OC)C2)CC(=O)[C@H](C)/C=C(\C)[C@@H](O)[C@@H](OC)C(=O)[C@H](C)C[C@H](C)/C=C/C=C/C=C/1C [Everolimus] + CC(C)C[C@H](NC(=O)[C@H](Cc1ccccc1)NC(=O)c1cnccn1)B(O)O [Bortezomib] (partner 0.002 µM)
Outline: (§1)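 Lung cancer cell lines were seeded in 1536-well plates and dosed by pin tool the next day, with either a single drug or a fixed anchor-drug dose combined with five library-drug doses (not always all listed) spaced in √10 steps. Five days later, one step fixed the cells and stained their nuclei (final 0.05% Triton X-100, 1% formaldehyde, 1 ug/ml Hoechst), and nuclei were counted on 4× images. Relative viability is the nuclei count in treated wells divided by the count in vehicle wells, and each value is the median of duplicate plates.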

[2] = compound: CO[C@H]1C[C@@H]2CC[C@@H](C)[C@@](O)(O2)C(=O)C(=O)N2CCCC[C@H]2C(=O)O[C@H]([C@H](C)C[C@@H]2CC[C@@H](OCCO)[C@H](OC)C2)CC(=O)[C@H](C)/C=C(\C)[C@@H](O)[C@@H](OC)C(=O)[C@H](C)C[C@H](C)/C=C/C=C/C=C/1C [Everolimus] + CC1(C)CCC(c2ccc(Cl)cc2)=C(CN2CCN(c3ccc(C(=O)NS(=O)(=O)c4ccc(N[C@H](CCN5CCOCC5)CSc5ccccc5)c(S(=O)(=O)C(F)(F)F)c4)cc3)CC2)C1 [Navitoclax] (partner 0.5 µM)
Outline: as §1

[3] = compound: CO[C@H]1C[C@@H]2CC[C@@H](C)[C@@](O)(O2)C(=O)C(=O)N2CCCC[C@H]2C(=O)O[C@H]([C@H](C)C[C@@H]2CC[C@@H](OCCO)[C@H](OC)C2)CC(=O)[C@H](C)/C=C(\C)[C@@H](O)[C@@H](OC)C(=O)[C@H](C)C[C@H](C)/C=C/C=C/C=C/1C [Everolimus] + CCNC(=O)c1noc(-c2cc(C(C)C)c(O)cc2O)c1-c1ccc(CN2CCOCC2)cc1 [Luminespib] (partner 0.01 µM)
Outline: as §1

[4] = compound: CO[C@H]1C[C@@H]2CC[C@@H](C)[C@@](O)(O2)C(=O)C(=O)N2CCCC[C@H]2C(=O)O[C@H]([C@H](C)C[C@@H]2CC[C@@H](OCCO)[C@H](OC)C2)CC(=O)[C@H](C)/C=C(\C)[C@@H](O)[C@@H](OC)C(=O)[C@H](C)C[C@H](C)/C=C/C=C/C=C/1C [Everolimus] + Cc1nc(Nc2ncc(C(=O)Nc3c(C)cccc3Cl)s2)cc(N2CCN(CCO)CC2)n1 [Dasatinib] (partner 0.075 µM)
Outline: as §1

Row | Cell Line | relative viability ([1]; first compound 0.01 µM) | relative viability ([1]; first compound 0.03162 µM) | relative viability ([1]; first compound 0.1 µM) | relative viability ([1]; first compound 0.3162 µM) | relative viability ([1]; first compound 1 µM) | relative viability ([2]; first compound 0.01 µM) | relative viability ([2]; first compound 0.03162 µM) | relative viability ([2]; first compound 0.1 µM) | relative viability ([2]; first compound 0.3162 µM) | relative viability ([2]; first compound 1 µM) | relative viability ([3]; first compound 0.01 µM) | relative viability ([3]; first compound 0.03162 µM) | relative viability ([3]; first compound 0.1 µM) | relative viability ([3]; first compound 0.3162 µM) | relative viability ([3]; first compound 1 µM) | relative viability ([4]; first compound 0.01 µM) | relative viability ([4]; first compound 0.03162 µM) | relative viability ([4]; first compound 0.1 µM) | relative viability ([4]; first compound 0.3162 µM) | relative viability ([4]; first compound 1 µM)
1 | 201T | 1.01 | 1.01 | 0.956 | 0.927 | 0.953 | 1 | 1.09 | 1.05 | 1.07 | 1.03 | 0.85 | 0.816 | 0.838 | 0.823 | 0.874 | 0.592 | 0.595 | 0.521 | 0.547 | 0.519
2 | A549 |  |  |  |  |  | 0.64 | 0.455 | 0.452 | 0.474 | 0.458 |  |  |  |  |  |  |  |  |  | 
3 | A-427 | 0.783 | 0.891 | 0.778 | 0.742 | 0.768 | 0.622 | 0.404 | 0.409 | 0.388 | 0.461 | 0.584 | 0.611 | 0.651 | 0.779 | 0.729 | 0.527 | 0.526 | 0.397 | 0.462 | 0.489
4 | ABC-1 | 0.272 | 0.3 | 0.304 | 0.285 | 0.293 |  |  |  |  |  |  | 0.342 | 0.316 | 0.371 | 0.355 |  | 0.393 | 0.413 | 0.455 | 0.513
5 | BEN | 0.326 | 0.367 | 0.299 | 0.333 | 0.328 | 0.0532 | 0.0623 | 0.063 | 0.0598 | 0.0645 | 0.191 | 0.152 | 0.201 | 0.161 | 0.168 | 0.221 | 0.209 | 0.217 | 0.236 | 0.211
6 | CAL-12T | 0.662 | 0.732 | 0.557 | 0.597 | 0.713 | 0.438 | 0.452 | 0.35 | 0.423 | 0.498 | 0.146 | 0.138 | 0.173 | 0.159 | 0.212 | 0.274 | 0.261 | 0.194 | 0.289 | 0.189
7 | COR-L23 | 0.788 | 0.963 | 0.635 | 0.683 | 0.864 | 0.706 | 0.597 | 0.662 | 0.636 | 0.765 | 0.417 | 0.377 | 0.461 | 0.431 | 0.268 | 0.429 | 0.498 | 0.432 | 0.497 | 0.485
8 | COR-L 105 | 0.593 | 0.476 | 0.445 | 0.565 | 0.584 | 0.574 | 0.636 | 0.616 | 0.652 | 0.57 | 0.405 | 0.392 | 0.333 | 0.313 | 0.365 | 0.25 | 0.262 | 0.211 | 0.253 | 0.233
9 | Calu-6 | 0.91 | 0.9 | 0.901 | 0.937 | 0.78 | 0.774 | 0.714 | 0.779 | 0.7 | 0.532 |  |  |  |  |  |  |  |  |  | 
10 | ChaGo-K-1 | 0.992 | 0.909 | 0.993 | 0.955 | 1.01 | 1.01 | 0.558 | 0.951 | 0.837 | 1.01 | 0.455 | 0.396 | 0.54 | 0.432 | 0.399 | 0.523 | 0.565 | 0.532 | 0.521 | 0.61
11 | EBC-1 | 0.344 | 0.406 | 0.314 | 0.424 | 0.255 | 0.211 | 0.217 | 0.153 | 0.22 | 0.222 |  |  |  |  |  |  |  |  |  | 
12 | EKVX | 0.636 | 0.721 | 0.631 | 0.558 | 0.6 | 0.542 | 0.75 | 0.505 | 0.514 | 0.654 | 0.623 | 0.475 | 0.336 | 0.447 | 0.425 | 0.539 | 0.435 | 0.419 | 0.366 | 0.287
13 | EMC-BAC-2 | 0.731 | 0.69 | 0.645 | 0.588 | 0.616 | 0.9 | 0.806 | 0.619 | 0.736 | 0.61 | 0.789 | 0.714 | 0.689 | 0.735 | 0.613 | 0.24 | 0.242 | 0.189 | 0.219 | 0.278
14 | EPLC-272H | 0.573 | 0.589 | 0.517 | 0.638 | 0.558 | 0.996 | 0.697 | 0.598 | 0.602 | 0.673 | 0.162 | 0.176 | 0.188 | 0.203 | 0.263 | 0.235 | 0.266 | 0.213 | 0.227 | 0.276
15 | H3255 | 0.518 | 0.458 | 0.359 | 0.394 | 0.44 | 0.252 | 0.23 | 0.188 | 0.167 | 0.148 | 0.594 | 0.584 | 0.479 | 0.504 | 0.498 | 0.35 | 0.266 | 0.332 | 0.239 | 0.335
16 | HARA | 1.07 | 1.14 | 0.904 | 1.11 | 1.01 | 1.14 | 1.2 | 1.12 | 1.11 | 0.898 | 0.748 | 0.768 |  | 0.407 | 0.203 | 0.199 | 0.244 |  | 0.209 | 0.289
17 | HCC-15 | 1.01 | 1.09 | 0.968 | 1.06 | 1.07 | 0.691 | 0.629 | 0.512 | 0.637 | 0.512 | 0.45 | 0.449 | 0.368 | 0.387 | 0.191 | 0.667 | 0.546 | 0.417 | 0.561 | 0.489
